Experiments:
[1] = Procedure: The four β-alanine formulations (0%, 2.5%, 5.0%, and 7.5% w/w β-alanine) were sequentially applied to a different location of each patient's cheek skin by a physician. Subjective scoring for itch (0 (none) to 10 (maximum itch)) was recorded over a 5-minute period. Symbols on the bar graph represent individual patients (n=16). Bar height indicates the average value. […] P-values were calculated using a nonparametric ANOVA Kruskai-Wallis test.
β-alanine powder (GNC, #369898) was mixed into Versapro® Cream at a concentration of 0%, 2.5%, 5.0% or 7.5% w/w. The ingredients of Versapro® Cream include water, aloe Barbadensis leaf juice, cyclopentasiloxane, disodium EDTA, emulsifying wax NF, ethylhexglyglycering, ethylhexyl stearate, phenoxyethanol, sorbitol, and tocopheryl acetate. The mixture was agitated until homogenous.
A cohort of patients without skin disease were selected for testing (n=16). Each patient had 0.1 ml of cream applied to cheek skin by a physician. Over the course of 5 minutes, the patients reported the intensity of pruritus (itching) on a scale of 0 (no itching) to 10 (maximal itching). The process was repeated for all four formulations (0%, 2.5%, 5.0% or 7.5% w/w β-alanine) using different areas of cheek skin. The efficacy of topical J3-alanine was determined based on the development of pruritus.

[2] = Patient-reported itching after facial application of 5% w/w β-alanine cream with menthol; assay type: in vivo, human
Description: (§1) FIGS. 2A and 2B show subjective patient-reported scoring for itch (FIG. 2A) and overall discomfort (FIG. 2B) of facially applied cream containing 5% w/w β-alanine and the indicated concentration of menthol. Each of the four formulations (0%, 0.5%, 1.0%, and 1.5% w/w menthol with 5% w/w f-alanine) were sequentially applied to different locations of a patient's cheek skin by a physician. Scoring was on a scale of 0 to 10, with 0 being no itch or discomfort and 10 being maximum itch or discomfort. Each symbol represents an individual patient (n=10). Bar height indicates the average value. Error bars represent +/−SEM. * P<0.05; ** P<0.01. P-values were calculated using a nonparametric ANOVA Kruskai-Wallis test.
A cohort of patients without inflammatory skin conditions (n=10) was given four different topical formulations for facial application. All four formulations contained 5% w/w β-alanine in Versapro® Cream (see, e.g., Example 1), however, each contained a different concentration of menthol (0.0%, 0.5%, 1.0%, and 1.5% w/w). A physician sequentially applied 0.1 ml of each formulation to distinct areas of the cheek with a 10 minute pause between each application. Patients were asked to rate the degree of itching and overall discomfort on a scale of 0 (no itching) to 10 (maximal itching) over the course of 5 minutes. […]

[3] = Patient-reported overall discomfort (eye irritation, cold sensation) after facial application of 5% w/w β-alanine cream with menthol; assay type: in vivo, human; conditions: for overall discomfort, scale 0 to 10: attributable to eye irritation and an unpleasant cold sensation
Description: as §1
A cohort of patients without inflammatory skin conditions (n=10) was given four different topical formulations for facial application. All four formulations contained 5% w/w β-alanine in Versapro® Cream (see, e.g., Example 1), however, each contained a different concentration of menthol (0.0%, 0.5%, 1.0%, and 1.5% w/w). A physician sequentially applied 0.1 ml of each formulation to distinct areas of the cheek with a 10 minute pause between each application. Patients were asked to rate the degree of itching and overall discomfort on a scale of 0 (no itching) to 10 (maximal itching) over the course of 5 minutes. The same process was repeated for the 0.5%, 1.0% and 1.5% w/w menthol containing formulations.

[4] = 0.5% w/w menthol in 5% w/w β-alanine cream

intensity of pruritus (itching), scale 0 to 10 ([1]; 2.5% w/w β-alanine in Versapro Cream, 0.1 ml on cheek skin, over 5 minutes, patients without skin disease (n=16)) | duration of pruritus triggered by topical cream ([1]; topical β-alanine cream on cheek skin) | Compound | intensity of itching [2, 4] | degree of itching, scale 0 to 10 ([2]; all concentrations of menthol (0.5%, 1.0%, 1.5% w/w) in 5% w/w β-alanine Versapro Cream, 0.1 ml on cheek, over 5 minutes, n=10) | eye discomfort [3, 4] | overall discomfort, scale 0 to 10 ([3]; 1.0% w/w menthol in 5% w/w β-alanine cream) | overall discomfort, scale 0 to 10 ([3]; 1.5% w/w menthol in 5% w/w β-alanine cream)
evident | less than 5 minutes | NCCC(=O)O [β-alanine, 3-aminopropanoic acid] | – | – | – | – | –
– | – | CC1CCC(C(C)C)C(O)C1 (stereo not shown) [menthol, 5-methyl-2-(propan-2-yl)cyclohexan-1-ol] | successfully decreased | notably reduced | without promoting eye discomfort | increased | increased
